Data as given in patent US11230717B2, “Plants having increased tolerance to herbicides” (BASF SE, priority 2013, dated 2022).
Where “and” joins values, the source holds several entries; their conditions need not be identical. Identical values can stand only once.

Columns and labels:
Format in all cases: biochemical
Arabidopsis HPPD = target: T1, Arabidopsis HPPD (Arabidopsis thaliana, UniProt P93836); test: HPPD activity assay (homogentisic acid by HPLC), in vitro characterization; conditions: for Normalized tolerance index (TI): Arabidopsis HPPD Wildtype (SEQ ID: 53), reference
T1 construct: His6 (N); made in house; host or cells: E. coli BL21 (DE3)
T1 sequence (P93836 1-445): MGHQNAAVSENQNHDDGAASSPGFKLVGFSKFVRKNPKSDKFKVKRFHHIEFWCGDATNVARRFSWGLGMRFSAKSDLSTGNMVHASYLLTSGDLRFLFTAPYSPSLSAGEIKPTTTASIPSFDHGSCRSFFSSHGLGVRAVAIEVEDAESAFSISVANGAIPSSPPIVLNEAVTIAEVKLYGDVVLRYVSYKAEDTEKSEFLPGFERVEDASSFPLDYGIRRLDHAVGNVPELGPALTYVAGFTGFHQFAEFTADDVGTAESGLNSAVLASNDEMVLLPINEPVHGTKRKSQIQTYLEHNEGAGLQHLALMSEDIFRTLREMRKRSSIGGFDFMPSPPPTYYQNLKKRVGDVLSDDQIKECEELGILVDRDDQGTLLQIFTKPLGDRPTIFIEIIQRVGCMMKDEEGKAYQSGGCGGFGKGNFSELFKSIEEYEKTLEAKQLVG
Method: (§1) HPPD produces homogentisic acid and CO2 from 4-hydroxyphenylpyruvate (4-HPP) and O2. The activity assay for HPPD is based on the analysis of homogentisic acid by reversed phase HPLC.
(§2) The assay mixture can contain 150 mM potassium phosphate buffer pH 7.0, 50 mM L-ascorbic acid, 100 μM Catalase (Sigma-Aldrich), 1 μM FeSO4 and 0.2 units of purified HPPD enzyme in a total volume of 505 μl. 1 unit is defined as the amount of enzyme that is required to produce 1 nmol of HGA per minute at 20° C.
(§3) After a preincubation of 30 min the reaction is started by adding 4-HPP to a final concentration of 0.05 mM. The reaction is allowed to proceed for 45 min at room temperature. The reaction is stopped by the addition of 50 μl of 4.5 M phosphoric acid. The sample is filtered using a […] pore size PVDF filtration device.
(§4) 5 μl of the cleared sample is analyzed on an UPLC HSS T3 column (particle size 1.8 μm, dimensions 2,1×50 mm; Waters) by isocratic elution using 90% 20 mM NaH2PO4 pH 2.2, 10% methanol (v/v).
(§5) HGA is detected electrochemically at 750 mV (mode: DC; polarity: positive) and quantified by integrating peak areas (Empower software; Waters).
(§6) Inhibitors are dissolved in DMSO (dimethylsulfoxide) to a concentration of 0.5 mM. From this stock solution serial five-fold dilutions are prepared in DMSO, which are used in the assay. The respective inhibitor solution accounts for 1% of the assay volume. […] Activities are normalized by setting the uninhibited enzyme activity to 100%. IC50 values are calculated using non-linear regression.
Using methods which are described in the above examples or well known in the art, purified, recombinant wildtype HPPD enzymes are characterized with respect to their kinetic properties and sensitivity towards HPPD inhibiting herbicides. Apparent michaelis constants (Km) and maximal reaction velocities (Vmax) are calculated by non-linear regression with the software GraphPad Prism 5 (GraphPad Software, La Jolla, USA) using a substrate inhibition model. […] Weighted means (by standard error) of Km and IC50 values are calculated from at least three independent experiments. […] To assess the potential performance of a herbicide tolerance trait a tolerance index (TI) is calculated using the following formula: […]

[1] = target: T2, Hordeum HPPD variant F404L (Hordeum vulgare, UniProt O48604, A164G/F404L/R146V/R147D/R148G); test: HPPD activity assay, in vitro characterization of HPPD mutants; conditions: normalized to wild-type
T2 construct: His (N); made in house; host or cells: E. coli BL21 (DE3)
Method: as §1, §2, §3, §4, §5, §6
(§7) Purified, mutant HPPD enzymes are obtained by the methods described above. Dose response and kinetic measurements are carried out using the described HPPD activity assay. Apparent michaelis constants (Km) and maximal reaction velocities (Vmax) are calculated by non-linear regression with the software GraphPad Prism 5 (GraphPad Software, La Jolla, USA) using a substrate inhibition model. […] Weighted means (by standard error) of Km and IC50 values are calculated from at least three independent experiments.
(§8) Field performance of the optimized HPPD enzyme, which is used as a herbicide tolerance trait may depend not only on its lack of sensitivity towards HPPD inhibiting herbicides but also on its activity. To assess the potential performance of a herbicide tolerance trait a tolerance index (TI) is calculated using the following formula: […]

[2] = target: T3, Hordeum HPPD variant L320H (Hordeum vulgare, UniProt O48604, A164G/L320H/R146V/R147D/R148G); test: as above; conditions: normalized to wild-type
T3 construct: His (N); made in house; host or cells: E. coli BL21 (DE3)
Method: as §1, §2, §3, §4, §5, §6, §7, §8

[3] = target: T4, Hordeum HPPD variant L320H, P321A (Hordeum vulgare, UniProt O48604, L320H/P321A); test: as above; conditions: normalized to wild-type
T4 construct: His (N); made in house; host or cells: E. coli BL21 (DE3)
Method: as §1, §2, §3, §4, §5, §6, §7, §8

[4] = target: T5, Hordeum HPPD variant L353M, P321R, L320N (Hordeum vulgare, UniProt O48604, L320N/L353M/P321R); test: as above; conditions: normalized to wild-type
T5 construct: His (N); made in house; host or cells: E. coli BL21 (DE3)
Method: as §1, §2, §3, §4, §5, §6, §7, §8

[5] = target: T6, Hordeum HPPD variant R309K (Hordeum vulgare, UniProt O48604, A164G/R146V/R147D/R148G/R309K); test: as above; conditions: normalized to wild-type
T6 construct: His (N); made in house; host or cells: E. coli BL21 (DE3)
Method: as §1, §2, §3, §4, §5, §6, §7, §8

T3 sequence (O48604 whole entry R146V/R147D/R148G/A164G/L320H): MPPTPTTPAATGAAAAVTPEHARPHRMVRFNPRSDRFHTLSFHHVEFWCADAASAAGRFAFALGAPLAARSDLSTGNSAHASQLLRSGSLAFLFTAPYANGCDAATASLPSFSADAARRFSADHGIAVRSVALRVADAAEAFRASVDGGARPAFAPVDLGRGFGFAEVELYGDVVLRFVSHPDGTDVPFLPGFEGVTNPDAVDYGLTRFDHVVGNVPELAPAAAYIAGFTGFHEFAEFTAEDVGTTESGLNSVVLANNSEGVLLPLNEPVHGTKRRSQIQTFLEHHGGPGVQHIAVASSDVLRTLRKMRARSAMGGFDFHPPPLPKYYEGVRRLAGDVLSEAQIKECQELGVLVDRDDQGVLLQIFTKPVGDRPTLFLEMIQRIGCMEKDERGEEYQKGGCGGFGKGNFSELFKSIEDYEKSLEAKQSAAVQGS
T2 sequence (O48604 whole entry R146V/R147D/R148G/A164G/F404L): as the sequence (O48604 whole entry R146V/R147D/R148G/A164G/L320H) above, with H320L, F404L counted along it
T5 sequence (O48604 whole entry R146V/R147D/R148G/A164G/L320N/P321R/L353M): as the sequence (O48604 whole entry R146V/R147D/R148G/A164G/L320H) above, with H320N, P321R, L353M counted along it
T4 sequence (O48604 whole entry R146V/R147D/R148G/A164G/L320H/P321A): as the sequence (O48604 whole entry R146V/R147D/R148G/A164G/L320H) above, with P321A counted along it
T6 sequence (O48604 whole entry R146V/R147D/R148G/A164G/R309K): as the sequence (O48604 whole entry R146V/R147D/R148G/A164G/L320H) above, with R309K, H320L counted along it

Row | SMILES | Ki (Arabidopsis HPPD) [nM] | Normalized tolerance index (TI) (Arabidopsis HPPD) | TI (tolerance index) (Arabidopsis HPPD; Arabidopsis HPPD, not normalized) | Normalized tolerance index (TI) [1] | Normalized tolerance index (TI) [2] | Normalized tolerance index (TI) [3] | Normalized tolerance index (TI) [4] | Normalized tolerance index (TI) [5]
1 | Cn1nnnc1NC(=O)c1c(F)cc(Cl)c(S(C)(=O)=O)c1Cl [Inhibitor 1, 2,4-dichloro-6-fluoro-3-methylsulfonyl-N-(1-methyltetrazol-5-yl)benzamide] | 15 | 1 | 15E−3 | 1.6 | 4 and 4.6 | 3.7 | 1.9 | 2.6
2 | CSc1c(Cl)cc(F)c(C(=O)Nc2ncnn2C)c1Cl [Inhibitor 3, 2,4-dichloro-6-fluoro-3-methylsulfanyl-N-(2-methyl-1,2,4-triazol-3-yl)benzamide] |  | 1 |  | 1.8 | 1.9 | 14.3 | 0.9 | 3
